Molecular target: T1, UGT73A17 (rUGT73A17, CsUGT73A17) (Camellia sinensis, UniProt W6JMN6, L296I/A466V, form not given)
T1 construct: gene CsUGTC1; full-length ORF (1422 bp, 473 residues) from tea EST library, N-terminal MBP fusion (pMAL-c2X), E. coli Novablue, purified
Assay: HPLC product quantification, Lineweaver-Burk
Type: biochemical
Details: UDP-glucose as sugar donor, 100 mM Tris-HCl pH 7.0, 30°C

T1 sequence (W6JMN6 entry or part of it L296I/A466V, form open): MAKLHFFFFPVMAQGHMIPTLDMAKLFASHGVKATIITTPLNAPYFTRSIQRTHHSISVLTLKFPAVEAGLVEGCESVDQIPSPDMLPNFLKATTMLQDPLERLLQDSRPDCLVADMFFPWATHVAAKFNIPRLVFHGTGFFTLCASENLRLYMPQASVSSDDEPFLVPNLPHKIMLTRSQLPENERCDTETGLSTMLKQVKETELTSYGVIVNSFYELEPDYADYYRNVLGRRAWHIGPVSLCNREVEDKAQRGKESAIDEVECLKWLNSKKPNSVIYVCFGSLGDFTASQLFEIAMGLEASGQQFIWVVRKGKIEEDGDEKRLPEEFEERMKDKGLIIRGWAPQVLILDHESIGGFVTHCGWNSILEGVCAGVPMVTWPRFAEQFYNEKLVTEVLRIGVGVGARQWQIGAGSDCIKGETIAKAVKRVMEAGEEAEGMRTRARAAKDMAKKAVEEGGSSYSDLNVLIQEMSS

SMILES	Km [µM]
O=C(O[C@H]1Cc2c(O)cc(O)cc2O[C@H]1c1ccc(O)c(O)c1)c1cc(O)c(O)c(O)c1 [epicatechin gallate]	77 ± 5.9
O=C1C[C@@H](c2ccc(O)cc2)Oc2cc(O)cc(O)c21 [naringenin]	9.5 ± 5
O=c1c(O)c(-c2ccc(O)cc2)oc2cc(O)cc(O)c12 [kaempferol]	5.2
O=c1cc(-c2ccc(O)c(O)c2)oc2cc(O)cc(O)c12 [luteolin]	3.2
O=c1cc(-c2cc(O)c(O)c(O)c2)oc2cc(O)cc(O)c12 [tricetin]	4.6 ± 0.71
O=c1c(O)c(-c2cc(O)c(O)c(O)c2)oc2cc(O)cc(O)c12 [myricetin]	8.8 ± 4.3
O=c1cc(-c2ccc(O)cc2)oc2cc(O)cc(O)c12 [apigenin]	5.5 ± 1.5
